# In patent US5874426A, “Cyclic amine derivatives of substituted quinoxaline 2,3-diones as glutamate receptor antagonists” (Warner-Lambert Company, priority 1995, dated 1999):
# Assays:
# [1] = target: kainate site (non-NMDA receptor); test: kainate site (non-NMDA receptor) binding affinity (London and Coyle); conditions: Table 1
# AMPA receptors = test: AMPA receptor binding affinity (Honoré et al.); conditions: Table 1
# CF-1 strain mice = test: maximal electroshock assay in CF-1 strain mice, corneal electrodes; assay type: in vivo; conditions: ten mice; IV; 30 seconds; 0.5 min
# Source text: The graph is the […] of mice protected versus the time in minutes.
Molecule,IC50 KA [1],IC50 (AMPA receptors),ED50 maximal electroshock dose-response (CF-1 strain mice)
"Cc1c([N+](=O)[O-])cc2[nH]c(=O)c(=O)[nH]c2c1CN1CCCCC1C (stereo not drawn) [6-Methyl-5-(2-methyl-piperidin-1-ylmethyl)-7-nitro-1,4-dihydroquinoxaline-2,3-dione]",8280 nM,490 nM,
"Cc1c([N+](=O)[O-])cc2[nH]c(=O)c(=O)[nH]c2c1CN1CCC2(CCCCC2)CC1 [5-(3-Azaspiro [5.5]undec-3-ylmethyl)-6-methyl-7-nitro-1,4-dihydroquinoxaline-2,3-dione]",6540 nM,486 nM,
"Cc1c([N+](=O)[O-])cc2[nH]c(=O)c(=O)[nH]c2c1CN1C(C)CCC1C (stereo not drawn) [5-(2,5-Dimethyl-pyrrolidin-1-ylmethyl)-6-methyl-7-nitro-1,4-dihydroquinoxaline-2,3-dione]",2840 nM,740 nM,
"Cc1c([N+](=O)[O-])cc2[nH]c(=O)c(=O)[nH]c2c1CN1CCCCC1 [6-Methyl-7-nitro-5-piperidin-1-ylmethyl-1,4-dihydroquinoxaline-2,3-dione]",4110 nM,290 nM,
"Cc1c([N+](=O)[O-])cc2[nH]c(=O)c(=O)[nH]c2c1CN1CCN(C)CC1 [6-Methyl-5-(4-methyl-piperazin-1-ylmethyl)-7-nitro-1,4-dihydroquinoxaline-2,3-dione]",13200 nM,2470 nM,
"Cc1c([N+](=O)[O-])cc2[nH]c(=O)c(=O)[nH]c2c1CN1CCCC1 [6-Methyl-5-pyrrolidin-1-ylmethyl-7-nitro-1,4-dihydroquinoxaline-2,3-dione]",4520 nM,220 nM,
"Cc1c([N+](=O)[O-])cc2[nH]c(=O)c(=O)[nH]c2c1CN1CCC(C)CC1 [6-Methyl-5-(4-methyl-piperidin-1-ylmethyl)-7-nitro-1,4-dihydroquinoxaline-2,3-dione]",9950 nM,420 nM,
"Cc1c([N+](=O)[O-])cc2[nH]c(=O)c(=O)[nH]c2c1CN1CCOCC1 [6-Methyl-5-morpholin-4-ylmethyl-7-nitro-1,4-dihydroquinoxaline-2,3-dione]",9083 nM,572 nM,
"1,4,7,8,9,10-hexahydro-7-methyl-6-nitro-pyrido[3,4-f]quinoxaline-2,3-dione [PNQX]",,,0.5 mg/kg
"Cc1c([N+](=O)[O-])cc2[nH]c(=O)c(=O)[nH]c2c1CN1CCCC1C (stereo not drawn) [6-Methyl-5-(2-methyl-pyrrolidin-1-ylmethyl)-7-nitro-1,4-dihydroquinoxaline-2,3-dione]",6110 nM,370 nM,
"Cc1c([N+](=O)[O-])cc2[nH]c(=O)c(=O)[nH]c2c1CN1CCCCCC1 [5-Azepan-1-ylmethyl-6-methyl-7-nitro-1,4-dihydroqinoxaline-2,3-dione]",3695 nM,899 nM,
